Data: patent EP0173319A1, “Substituted arylsulfonyl guanidines” (BAYER AG, priority 1984, dated 1986)

What was measured:
Testpflanzen [1] = test: Post-emergence-Test (herbicidal); assay type: in vivo; settings: test plants 5 - 15 cm high sprayed, damage rated after three weeks vs untreated control (0 % = keine Wirkung, 100 % = totale Vernichtung), rate or species not given
Source text: (§1) Lösungsmittel: 5 Gewichtsteile Aceton Emulgator: 1 Gewichtsteil Alkylarylpolyglykolether
(§2) Zur Herstellung einer zweckmäßigen Wirkstoffzubereitung vermischt man 1 Gewichtsteil Wirkstoff mit der angegebenen Menge Lösungsmittel, gibt die angegebene Menge Emulgator zu und verdünnt das Konzentrat mit Wasser auf die gewünschte Konzentration.
Mit der Wirkstoffzubereitung spritzt man Testpflanzen, welche eine Höhe von 5 - 15 cm haben so, daß die jeweils gewünschten Wirkstoffmengen pro Flächeneinheit ausgebracht werden. Die Konzentration der Spritzbrühe wird so gewählt, daß in 2000 1 Wasser/ha die jeweils gewünschten Wirkstoffmengen ausgebracht werden. Nach drei Wochen wird der Schädigungsgrad der Pflanzen bonitiert in % Schädigung im Vergleich zur Entwicklung der unbehandelten Kontrolle.
Es bedeuten: • 0 % = keine Wirkung (wie unbehandelte Kontrolle) 100 % = totale Vernichtung

Testpflanzen [2] = test: Pre-emergence-Test (herbicidal); assay type: in vivo; settings: soil watered 24 h after sowing, damage rated after three weeks vs untreated control (0 % = keine Wirkung, 100 % = totale Vernichtung), rate or species not given
Source text: as §1, §2
Samen der Testpflanzen werden in normalen Boden ausgesät und nach 24 Stunden mit der Wirkstoffzubereitung begossen. Dabei hält man die Wassermenge pro Flächeneinheit zweckmäßigerweise konstant. Die Wirkstoffkonzentration in der Zubereitung spielt keine Rolle, entscheidend ist nur die Aufwandmenge des Wirkstoffs pro Flächeneinheit. Nach drei Wochen wird der Schädigungsgrad der Pflanzen bonitiert in % Schädigung im Vergleich zur Entwicklung der unbehandelten Kontrolle. Es bedeuten: • 0 % = keine Wirkung (wie unbehandelte Kontrolle) 100 % = totale Vernichtung

## CON(C(=NS(=O)(=O)c1ccccc1SC)Nc1nc(C)cc(C)n1)S(=O)(=O)c1ccccc1SC [Beispiel 1, N'-(4,6-Dimethyl-pyrimidin-2-yl)-N''-methoxy-N'',N'''-bis-(2-methylthio-benzolsulfonyl)-guanidin]
Testpflanzen [1]
  herbizide Wirksamkeit: sehr gute herbizide Wirksamkeit
Testpflanzen [2]
  herbizide Wirksamkeit: sehr gute herbizide Wirksamkeit

## Cc1cc(C)nc(NC(=NS(=O)(=O)c2ccccc2S(=O)(=O)N(C)C)NN(C)C)n1 [Beispiel 2, N'-(4,6-Dimethyl-pyrimidin-2-yl)-N''-dimethylamino-N'''-(2-dimethylamino-sulfonyl-benzolsulfonyl)-guanidin]
Testpflanzen [1]
  herbizide Wirksamkeit: sehr gute herbizide Wirksamkeit
Testpflanzen [2]
  herbizide Wirksamkeit: sehr gute herbizide Wirksamkeit

## Cc1cc(C)nc(NC(=NS(=O)(=O)c2ccccc2S(=O)(=O)N(C)C)N(OCC(C)C)S(=O)(=O)c2ccccc2S(=O)(=O)N(C)C)n1.[K] [Beispiel 4, N'-(4,6-Dimethyl-pyrimidin-2-yl)-N''-(2-methyl-propoxy)-N'',N'''-bis-(2-dimethylaminosulfonyl-benzolsulfonyl)-guanidin-Kaliumsalz]
Testpflanzen [1]
  herbizide Wirksamkeit: sehr gute herbizide Wirksamkeit
